# From US9850522B2, “One-step rapid assay for the detection of inhibitors of enzymes” (priority 2013, dated 2017)
# Marks after values point to notes of the source that are not given here.
# Legend:
# [1] = target: T1, AChE from eel (Electrophorus electricus, UniProt O42275); experiment: AChE test ticket, fluorescence (NMI substrate), reader hue ratio; type: biochemical
# T1 construct: purchased Sigma-Aldrich
# Description: N-methyl indoxyl (NMI) acetate (100 mg, Sigma-Aldrich) was dissolved in 100 mil, 100% USP ethyl alcohol (Sigma-Aldrich) for a final concentration of […]. Strips of porous matrix Surewick Sample Pad C248 (Millipore) were saturated with this NMI solution and dried at 45° C. for two hours. The strips were then removed from the oven and stored in a resealable plastic bag with desiccant.
# AChE from eel (Sigma-Aldrich) was dissolved to a final concentration of 2.2 units/mL in a buffer containing 10 mM potassium phosphate, 5% sucrose and 0.5% BSA at pH=7.4 and passed through a 0.22 μm filter. Strips of Millipore GFCP20300 glass fiber were pretreated by soaking with a mixture of 2% sucrose and 2% Triton in 6.25 mM borate buffer and dried at 45° C. in an oven for 2 hours. These glass fiber strips were then saturated with the solution of AChE and dried for 2 hours at 45° C. The strips were then removed from the oven and stored in a resealable plastic bag with desiccant.
# To an adhesive-coated plastic backing, card (G&L) cut to 3×27 cm, is attached the fluid transfer membrane (nitrocellulose membrane) at a distance of 10 mm from the card bottom edge. The enzyme sample pad is attached flush to the bottom edge of the backing card overlapping the nitrocellulose membrane strip. The substrate pad is then attached flush to the other edge of the backing card (top edge), overlapping the nitrocellulose membrane. The assembled cards are then cut into 6.75 mm wide×16 mm long test strips using an automated guillotine cutter.
# A stock solution (1 mg/mL) of the carbamate pesticide, oxamyl (Supelco), was prepared in methanol, then serially diluted in purified water to a final concentration of 0.1 mg/L for use as a test sample. […]
# All tickets were then allowed to run for 15 minutes, then were inserted into a reader comprised of low light color cameras, 400 nm UV LED and custom color analysis software (FIG. 6). The reader calculates a ratio of the hue measured in the test sample site at the substrate pad to the hue measured in the negative control site at the substrate pad. […]
# [2] = target: acetylcholinesterase (Electrophorus electricus, UniProt O42275); experiment: Colorimetric test ticket, acetylcholinesterase strip; type: biochemical; conditions: 1 ppm; positive result, lack of blue color
# Sequence of acetylcholinesterase (O42275 24-633): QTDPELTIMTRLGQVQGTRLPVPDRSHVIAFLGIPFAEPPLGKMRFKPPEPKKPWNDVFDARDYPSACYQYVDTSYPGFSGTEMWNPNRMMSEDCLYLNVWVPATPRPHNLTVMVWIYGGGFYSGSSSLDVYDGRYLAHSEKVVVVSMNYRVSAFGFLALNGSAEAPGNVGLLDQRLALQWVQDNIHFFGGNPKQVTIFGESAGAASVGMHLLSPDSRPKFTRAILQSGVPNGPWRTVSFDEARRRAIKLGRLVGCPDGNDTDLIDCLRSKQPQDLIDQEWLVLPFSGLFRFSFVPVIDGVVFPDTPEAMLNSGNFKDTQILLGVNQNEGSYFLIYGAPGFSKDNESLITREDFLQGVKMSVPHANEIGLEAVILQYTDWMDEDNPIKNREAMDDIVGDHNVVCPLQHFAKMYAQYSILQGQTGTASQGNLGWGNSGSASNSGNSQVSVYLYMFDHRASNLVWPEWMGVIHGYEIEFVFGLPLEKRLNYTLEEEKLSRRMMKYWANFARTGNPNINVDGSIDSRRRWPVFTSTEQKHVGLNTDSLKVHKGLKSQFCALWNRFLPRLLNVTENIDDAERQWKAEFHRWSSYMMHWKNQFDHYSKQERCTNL
# T1 sequence (O42275 24-633): as above
smiles,measurement,setting,value
"CNC(=O)O/N=C(\SC)C(=O)N(C)C [Oxamyl, oxamyl]",Reactivity with AChE,[1],reacts strongly with AChE
same,Fluorescence hue ratio,"[1]; tested with AChE, 0.1 mg/L in purified water, test sample well:control well, 15 minutes run",2.82*
same,Result,"[1]; tested with AChE, 0.1 mg/L, hue ratio cutoff of 1.25",Positive (a ratio greater than 1.25 is considered positive)
same,Result of colorimetric test ticket (FIG. 14 C),[2],inhibits acetylcholinesterase
